Converted amounts (≈) assume the structure as drawn. “And” between values parts separate entries of the source, which are not always exact repeats. Identical values can stand only once. Counter-ions that a name gives are not always drawn. Like-named read-outs stand apart in the source and are kept apart here. Bridge positions count the residues as written; N and C are the ends. Square brackets hold non-standard residues; d marks the D form. Peptide text beside a SMILES is read from it. * marks the point of attachment. Dab = NCC[C@H](N)C(=O)O; X3 = O=C([C@H]1CCCNC1)*
How the values were obtained:
Acinetobacter baumannii [1] = assay: MIC, sole activity (no second agent); format: cell-based; settings: Table 6A; no second agent; different supplier of Cation-adjusted MHB
Outline: (§1)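 Compound tested without a second agent in cation-adjusted MHB, up to four strains per species, inoculum at 0.5 McFarland from colonies grown 18-24 h on Mueller-Hinton agar. Run in duplicate, invalid beyond 2-fold disagreement, lower duplicate or modal repeat value given, expressed relative to Polymyxin B.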

Escherichia coli [2] = assay: MIC, sole activity (no second agent); format: cell-based; settings: Table 6A; no second agent; different supplier of Cation-adjusted MHB
Outline: as §1

Klebsiella pneumoniae [3] = assay: MIC, sole activity (no second agent); format: cell-based; settings: Table 6A; no second agent; different supplier of Cation-adjusted MHB
Outline: as §1

Pseudomonas aeruginosa [4] = assay: MIC, sole activity (no second agent); format: cell-based; settings: Table 6A; no second agent; different supplier of Cation-adjusted MHB
Outline: as §1

HK-2 cell line = assay: In vitro renal cell toxicity assay (resazurin reduction); format: cell-based, human
P. aeruginosa ATCC27853 = format: in vivo, Pseudomonas aeruginosa; settings: ATCC27853, in vivo, iv, 5 mg/kg, 6 h
Procedure: Compounds were administered in solution by intravenous (IV) bolus injection into the lateral tail vein. […] At 1 hour post infection, 4 animals were humanely euthanized using pentabarbitone overdose to provide a pre-treatment control group. At 9 hours post infection, the clinical condition of all animals was assessed prior to them being humanely euthanized by pentabarbitone overdose. Animal weight was determined before both thighs were removed and weighed individually. Individual thigh tissue samples were homogenized in ice cold sterile phosphate buffered saline. Thigh homogenates were then quantitatively cultured onto CLED agar and incubated at 37° C. for 24 hours before colonies were counted.

Acinetobacter baumannii [5] = assay: MIC, compound in combination with a second agent (broth microdilution); format: cell-based; settings: 1:1 (wt:wt) combination with Rifampicin; for MIC: Acinetobacter baumannii
Outline: (§2)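 Broth microdilution with inoculum from 18-24 h Mueller-Hinton agar colonies adjusted to 0.5 McFarland, up to four strains per species. Compound combined 1:1 w/w with second agent (e.g. rifampicin), mass as salt form; MIC is total drug concentration. Duplicates, lower value reported if within 2-fold; modal value for repeat tests.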

Escherichia coli [6] = assay: as above; format: cell-based; settings: 1:1 (wt:wt) combination with Rifampicin; for MIC: Escherichia coli
Outline: as §2

Klebsiella pneumoniae [7] = assay: as above; format: cell-based; settings: 1:1 (wt:wt) combination with Rifampicin; for MIC: Klebsiella pneumoniae
Outline: as §2

Pseudomonas aeruginosa [8] = assay: as above; format: cell-based; settings: 1:1 (wt:wt) combination with Rifampicin; for MIC: Pseudomonas aeruginosa
Outline: as §2

K. pneumoniae = assay: MIC against panel of strains enriched for resistance to colistin or polymyxin B (CLSI), alone or 1:1 with rifampicin; format: cell-based, Klebsiella pneumoniae; settings: one value per strain of the panel
Procedure: (§3) […] For example, a well at 2 μg/mL consisted of 1 μg/mL test compound and 1 μg/mL rifampicin.
(§4) • where n indicates the number of strains within the panel for a particular organism.

P. aeruginosa = assay: as above; format: cell-based, Pseudomonas aeruginosa; settings: one value per strain of the panel
Procedure: as §3, §4

[9] = MIC is total drug concentration

CC(C)C[C@@H]1NC(=O)[C@@H](Cc2ccccc2)NC(=O)[C@H](CCN)NC(=O)[C@@H](NC(=O)[C@H](CCN)NC(=O)[C@@H](NC(=O)[C@H]2CCCNC2)[C@@H](C)O)CCNC(=O)[C@H]([C@@H](C)O)NC(=O)[C@H](CCN)NC(=O)[C@H](CCN)NC1=O [Example 37, (S)-Piperidine-3-carbonyl polymyxin B nonapeptide, trifluoroacetate salt] (X3-T[Dab][Dab][Dab][dF]L[Dab][Dab]T; lactam 3-C)
MIC A. baumannii ATCC BAA-747 (Acinetobacter baumannii [1]): 2 micrograms/mL | MIC A. baumannii NCTC 13424 (Acinetobacter baumannii [1]): 1 micrograms/mL | MIC E. coli ATCC25922 (Escherichia coli [2]): 0.5 micrograms/mL | MIC E. coli NCTC 13441 (Escherichia coli [2]): 0.5 micrograms/mL | MIC K. pneumoniae ATCC 4352 (Klebsiella pneumoniae [3]): 0.25 micrograms/mL | MIC K. pneumoniae ATCC BAA-2146 (Klebsiella pneumoniae [3]): 0.25 micrograms/mL | MIC P. aeruginosa ATCC 27853 (Pseudomonas aeruginosa [4]): 0.5 micrograms/mL | MIC P. aeruginosa CCUG 59347 (Pseudomonas aeruginosa [4]): 2 micrograms/mL | HK-2 IC50 rel to PMB (HK-2 cell line): 21 | log reduction in bacterial counts compared to non-treated control (P. aeruginosa ATCC27853): 1.75 log | MIC A. baumannii ATCC BAA-747 (Acinetobacter baumannii [5]; MIC = total drug concentration, strain ATCC BAA-747): ≤0.06 micrograms/mL | MIC A. baumannii CCUG57249 (Acinetobacter baumannii [5]; MIC = total drug concentration, strain CCUG57249): ≤0.06 micrograms/mL | MIC A. baumannii NCTC 13423 (Acinetobacter baumannii [5]; MIC = total drug concentration, strain NCTC 13423): ≤0.06 micrograms/mL | MIC A. baumannii NCTC 13424 (Acinetobacter baumannii [5]; MIC = total drug concentration, strain NCTC 13424): ≤0.06 micrograms/mL | MIC A. baumannii ATCC BAA-747 (Acinetobacter baumannii [5]; [9]): ≤0.06 micrograms/mL | MIC A. baumannii CCUG57249 (Acinetobacter baumannii [5]; [9]): ≤0.06 micrograms/mL | MIC A. baumannii NCTC 13423 (Acinetobacter baumannii [5]; [9]): ≤0.06 micrograms/mL | MIC A. baumannii NCTC 13424 (Acinetobacter baumannii [5]; [9]): ≤0.06 micrograms/mL | MIC E. coli ATCC25922 (Escherichia coli [6]; MIC = total drug concentration, strain ATCC25922): 0.125 micrograms/mL | MIC E. coli NCTC9001 (Escherichia coli [6]; MIC = total drug concentration, strain NCTC9001): ≤0.06 micrograms/mL | MIC E. coli ATCC25922 (Escherichia coli [6]; [9]): 0.125 micrograms/mL | MIC E. coli NCTC9001 (Escherichia coli [6]; [9]): ≤0.06 micrograms/mL | MIC K. pneumoniae ATCC-BAA-2146 (Klebsiella pneumoniae [7]; MIC = total drug concentration, strain ATCC-BAA-2146): 0.125 micrograms/mL | MIC K. pneumoniae CCUG-59348 (Klebsiella pneumoniae [7]; MIC = total drug concentration, strain CCUG-59348): 2 micrograms/mL | MIC K. pneumoniae NCTC 13438 (Klebsiella pneumoniae [7]; MIC = total drug concentration, strain NCTC 13438): 0.125 micrograms/mL | MIC K. pneumoniae ATCC-BAA-2146 (Klebsiella pneumoniae [7]; [9]): 0.125 micrograms/mL | MIC K. pneumoniae CCUG-59348 (Klebsiella pneumoniae [7]; [9]): 2 micrograms/mL | MIC K. pneumoniae NCTC 13438 (Klebsiella pneumoniae [7]; [9]): 0.125 micrograms/mL | MIC P. aeruginosa ATCC 27853 (Pseudomonas aeruginosa [8]; MIC = total drug concentration, strain ATCC 27853): ≤0.06 micrograms/mL | MIC P. aeruginosa ATCC CRM-9027 (Pseudomonas aeruginosa [8]; MIC = total drug concentration, strain ATCC CRM-9027): 0.125 micrograms/mL | MIC P. aeruginosa ATCC-47 (Pseudomonas aeruginosa [8]; MIC = total drug concentration, strain ATCC-47): ≤0.06 micrograms/mL | MIC P. aeruginosa CCUG 59626 (Pseudomonas aeruginosa [8]; MIC = total drug concentration, strain CCUG 59626): ≤0.06 micrograms/mL | MIC P. aeruginosa ATCC 27853 (Pseudomonas aeruginosa [8]; [9]): ≤0.06 micrograms/mL | MIC P. aeruginosa ATCC CRM-9027 (Pseudomonas aeruginosa [8]; [9]): 0.125 micrograms/mL | MIC P. aeruginosa ATCC-47 (Pseudomonas aeruginosa [8]; [9]): ≤0.06 micrograms/mL | MIC P. aeruginosa CCUG 59626 (Pseudomonas aeruginosa [8]; [9]): ≤0.06 micrograms/mL

CO[C@H]1/C=C/O[C@@]2(C)Oc3c(C)c(O)c4c(O)c(c(/C=N/N5CCN(C)CC5)c(O)c4c3C2=O)NC(=O)/C(C)=C\C=C\[C@H](C)[C@H](O)[C@@H](C)[C@@H](O)[C@@H](C)[C@H](OC(C)=O)[C@@H]1C [Rifampicin, reference compound]
MIC (K. pneumoniae; Klebsiella pneumoniae, read-out: MIC Klebsiella pneumoniae (n = 11), agent alone): 16 µg/mL (≈ 19.4 µM) | MIC Klebsiella pneumoniae (n = 11) (K. pneumoniae; agent alone): 32 micrograms/mL and > 32 micrograms/mL and >32, 32, 32, micrograms/mL and 32, 32, >32, micrograms/mL and >32, >32 micrograms/mL | MIC (P. aeruginosa; Pseudomonas aeruginosa, read-out: MIC Pseudomonas aeruginosa (n = 6), agent alone): 32 µg/mL (≈ 38.9 µM) | MIC Pseudomonas aeruginosa (n = 6) (P. aeruginosa; agent alone): 16 micrograms/mL and 32, 32, 32 micrograms/mL | MIC (Acinetobacter baumannii [5]; ATCCBAA747, MIC = total drug concentration, strain ATCC BAA-747, read-out: MIC A. baumannii ATCC BAA-747): 2 µg/mL | MIC (Acinetobacter baumannii [5]; NCTC13423, MIC = total drug concentration, strain NCTC 13423, read-out: MIC A. baumannii NCTC 13423): 1 µg/mL | MIC (Acinetobacter baumannii [5]; NCTC13424, MIC = total drug concentration, strain NCTC 13424, read-out: MIC A. baumannii NCTC 13424): 1 µg/mL | MIC (Acinetobacter baumannii [5]; MIC = total drug concentration, strain CCUG57249, read-out: MIC A. baumannii CCUG57249): 2 µg/mL | MIC (Escherichia coli [6]; MIC = total drug concentration, strain ATCC25922, read-out: MIC E. coli ATCC25922): 4 µg/mL | MIC (Escherichia coli [6]; MIC = total drug concentration, strain NCTC9001, read-out: MIC E. coli NCTC9001): 4 µg/mL | MIC (Klebsiella pneumoniae [7]; ATCC4352, MIC = total drug concentration, strain ATCC 4352, read-out: MIC K. pneumoniae ATCC 4352): 8 µg/mL | MIC (Klebsiella pneumoniae [7]; ATCCBAA2146, MIC = total drug concentration, strain ATCC-BAA-2146, read-out: MIC K. pneumoniae ATCC-BAA-2146): 16 µg/mL | MIC (Klebsiella pneumoniae [7]; CCUG59348, MIC = total drug concentration, strain CCUG-59348, read-out: MIC K. pneumoniae CCUG-59348): 32 µg/mL | MIC (Klebsiella pneumoniae [7]; NCTC13438, MIC = total drug concentration, strain NCTC 13438, read-out: MIC K. pneumoniae NCTC 13438): 16 µg/mL | MIC (Pseudomonas aeruginosa [8]; ATCC47, MIC = total drug concentration, strain ATCC-47, read-out: MIC P. aeruginosa ATCC-47): 16 µg/mL | MIC (Pseudomonas aeruginosa [8]; ATCC27853, MIC = total drug concentration, strain ATCC 27853, read-out: MIC P. aeruginosa ATCC 27853): 16 µg/mL | MIC (Pseudomonas aeruginosa [8]; CCUG59626, MIC = total drug concentration, strain CCUG 59626, read-out: MIC P. aeruginosa CCUG 59626): 16 µg/mL | MIC (Pseudomonas aeruginosa [8]; MIC = total drug concentration, strain ATCC CRM-9027, read-out: MIC P. aeruginosa ATCC CRM-9027): 16 µg/mL

Reference: patent US10407467B2, “Polymyxin derivatives and their use in combination therapy together with different antibiotics” (priority 2013, dated 2019)
